Test results published in ChEMBL document CHEMBL4673257, “Azepino-indazoles as calcitonin gene-related peptide (CGRP) receptor antagonists” (Bioorg Med Chem Lett, 2021).

Assays:
[1] = Oral bioavailability in rat at 10 mg/kg; format: ADME, organism-based; details: in vivo
[2] = target: T1, Calcitonin gene-related peptide type 1 receptor (Homo sapiens, UniProt O60894+Q16602); assay: Antagonist activity at human CGRP receptor
[3] = target: T1, Calcitonin gene-related peptide type 1 receptor; assay: Antagonist activity at human CGRP receptor in human SK-N-MC cells assessed as inhibition of CGRP-induced cAMP production; format: functional, cell-based
[4] = tested on: Callithrix jacchus; assay: Antimigraine activity in human CGRPalpha-induced migraine marmoset model assessed as reduction in facial blood flow at 5 mg/kg, sc administered 30 mins after CGRP stimulation and measured after 105 mins by laser doppler method relative to control; format: functional; set-up: scale not given: the % may be the effect or the level left; details: time 135 min, 2.25 h
[5] = tested on: Callithrix jacchus; assay: Antimigraine activity in human CGRPalpha-induced migraine marmoset model assessed as reduction in facial blood flow at 5 mg/kg, sc administered 30 mins after CGRP stimulation and measured after 60 mins by laser doppler method relative to control; format: functional; set-up: scale not given: the % may be the effect or the level left; details: time 90 min, 1.5 h
[6] = tested on: Callithrix jacchus; assay: Antimigraine activity in human CGRPalpha-induced migraine marmoset model assessed as reduction in facial blood flow at 5 mg/kg, sc administered 30 mins after CGRPalpha stimulation measured after 15 mins by laser doppler method relative to control; format: functional; set-up: scale not given: the % may be the effect or the level left; details: time 45 min, 0.75 h
[7] = Protein binding human plasma assessed as unbound fraction; format: ADME, cell-free
[8] = Metabolic stability in dog liver microsomes assessed as half life; format: ADME, Canis lupus familiaris, Microsome
[9] = Metabolic stability in rat liver microsomes assessed as half life; format: ADME, Microsome
[10] = Metabolic stability in monkey liver microsomes assessed as half life; format: ADME, Macaca mulatta, Microsome; details: rhesus monkey
[11] = Metabolic stability in human liver microsomes assessed as half life; format: ADME, Microsome

T1 sequence (Q16602 whole entry, one chain of several): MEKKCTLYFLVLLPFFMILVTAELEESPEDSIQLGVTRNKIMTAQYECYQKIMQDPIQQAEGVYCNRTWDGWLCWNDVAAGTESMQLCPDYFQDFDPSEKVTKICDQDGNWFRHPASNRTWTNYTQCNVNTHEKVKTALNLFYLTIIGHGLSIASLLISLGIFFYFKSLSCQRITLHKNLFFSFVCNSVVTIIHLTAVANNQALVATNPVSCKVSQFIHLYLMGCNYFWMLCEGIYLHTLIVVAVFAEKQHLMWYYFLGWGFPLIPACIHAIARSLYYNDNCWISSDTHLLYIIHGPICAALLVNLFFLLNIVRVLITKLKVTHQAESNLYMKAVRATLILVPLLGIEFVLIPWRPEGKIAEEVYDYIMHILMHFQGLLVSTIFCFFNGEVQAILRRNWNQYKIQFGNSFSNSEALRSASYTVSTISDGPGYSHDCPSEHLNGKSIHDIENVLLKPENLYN

Row | SMILES | bioavailability [1] [%] | Ki [2] [nM] | further results
1 | CC(C)(C)CN1Cc2c(cc(Cl)c3[nH]ncc23)C[C@@H](CC(=O)N2CCC(c3cc4ccccc4[nH]c3=O)CC2)C1=O | 4.5 | 0.75 | –
2 | O=C(C[C@@H]1Cc2cc(Cl)c3[nH]ncc3c2CN(CC(F)(F)F)C1=O)N1CCC(N2Cc3ccccc3NC2=O)CC1 | – | 0.23 | –
3 | O=C(C[C@@H]1Cc2cc(Cl)c3[nH]ncc3c2CN(CC(F)(F)F)C1=O)N1CCC(n2c(=O)[nH]c3ncccc32)CC1 | 5.5 | 0.09 | –
4 | O=C(C[C@@H]1Cc2cc(Cl)c3[nH]ncc3c2CN(CC(F)(F)F)C1=O)N1CCC(N2CCc3ccccc3NC2=O)CC1 | 17 | 0.1 | IC50 [3]: 0.27 nM; Activity [4]: 47%; Activity [5]: 41%; Activity [6]: 27%; fraction unbound [7]: 0.028; half-life [8]: 3.1 min; half-life [9]: 2.2 min; half-life [10]: 2.4 min; half-life [11]: 3.6 min
5 | O=C(C[C@@H]1Cc2cc(Cl)c3[nH]ncc3c2CN(CC(F)(F)F)C1=O)N1CCC(c2cc3ccccc3[nH]c2=O)CC1 | 3.4 | 0.54 | –
6 | CC(C)(C)CN1Cc2c(cc(Cl)c3[nH]ncc23)C[C@@H](CC(=O)N2CCC(N3Cc4cccc(F)c4NC3=O)CC2)C1=O | 4.7 | 0.31 | –
7 | CC(C)(C)CN1Cc2c(cc(Cl)c3[nH]ncc23)C[C@@H](CC(=O)N2CCC(c3cc4cccc(F)c4[nH]c3=O)CC2)C1=O | 12 | 6 | –
8 | CC(C)(C)CN1Cc2c(cc(Cl)c3[nH]ncc23)C[C@@H](CC(=O)N2CCC(N3Cc4ccccc4NC3=O)CC2)C1=O | 1.8 | 0.41 | –
9 | O=C(C[C@@H]1Cc2cc(Cl)c3[nH]ncc3c2CN(CC(F)(F)F)C1=O)N1CCC(N2CCc3cccc(F)c3NC2=O)CC1 | – | 9.2 | –
10 | O=C(C[C@@H]1Cc2cc(Cl)c3[nH]ncc3c2CN(CC(F)(F)F)C1=O)N1CCC(n2c(=O)[nH]c3ccccc32)CC1 | – | 3.3 | –
11 | O=C(C[C@@H]1Cc2cc(Cl)c3[nH]ncc3c2CN(CC(F)(F)F)C1=O)N1CCC(c2cc3cccc(F)c3[nH]c2=O)CC1 | – | 6 | –
12 | O=C(N[C@@H]1Cc2ccc3[nH]ncc3c2CN(C2CCNCC2)C1=O)N1CCC(N2Cc3ccccc3NC2=O)CC1 | – | 290 | –
13 | CC(C)(C)CN1Cc2c(cc(Cl)c3[nH]ncc23)C[C@@H](NC(=O)N2CCC(N3Cc4ccccc4NC3=O)CC2)C1=O | – | 1.5 | –

More lines, main results first:

Row | bioavailability [1] [%] | Ki [2] [nM] | SMILES | further results
14 | – | 7.1 | O=C(N[C@@H]1Cc2ccc3[nH]ncc3c2CN(CCc2ccncc2)C1=O)N1CCC(N2Cc3ccccc3NC2=O)CC1 | –
15 | – | 170 | CN(C)CCN1Cc2c(ccc3[nH]ncc23)C[C@@H](NC(=O)N2CCC(N3Cc4ccccc4NC3=O)CC2)C1=O | –
16 | – | 4.9 | CC(C)(C)CN1Cc2c(ccc3[nH]ncc23)C[C@@H](NC(=O)N2CCC(N3Cc4ccccc4NC3=O)CC2)C1=O | –
17 | – | 59 | CC(C)N1Cc2c(ccc3[nH]ncc23)C[C@@H](NC(=O)N2CCC(N3Cc4ccccc4NC3=O)CC2)C1=O | –
18 | – | 1 | O=C(N[C@@H]1Cc2cc(Cl)c3[nH]ncc3c2CN(Cc2ccccc2)C1=O)N1CCC(N2Cc3ccccc3NC2=O)CC1 | –
19 | – | 50 | O=C(N[C@@H]1Cc2ccc3[nH]ncc3c2CN(CCN2CCOCC2)C1=O)N1CCC(N2Cc3ccccc3NC2=O)CC1 | –
20 | – | 12 | O=C(N[C@@H]1Cc2ccc3[nH]ncc3c2CN(Cc2ccccc2)C1=O)N1CCC(N2Cc3ccccc3NC2=O)CC1 | –
21 | – | 22 | O=C(N[C@@H]1Cc2ccc3[nH]ncc3c2CN(Cc2ccncc2)C1=O)N1CCC(N2Cc3ccccc3NC2=O)CC1 | –
22 | – | 14 | CC(C)CN1Cc2c(ccc3[nH]ncc23)C[C@@H](NC(=O)N2CCC(N3Cc4ccccc4NC3=O)CC2)C1=O | –
23 | – | 370 | CN1Cc2c(ccc3[nH]ncc23)C[C@@H](NC(=O)N2CCC(N3Cc4ccccc4NC3=O)CC2)C1=O | –
